The results in this text go back to US20170226507A1, “COORDINATE CONTROL OF PATHOGENIC SIGNALING BY THE MIR-130/301 FAMILY IN PULMONARY HYPERTENSION AND FIBROPROLIFERATIVE DISEASES” (The Brigham and Women's Hospital, Inc., priority 2014, published 2017).

“Also recorded” adds a separate entry of the source.

Holding throughout (format): cell-based, human
One data set concerns PAECs. Description: Caspase 3/7 assay, PAECs. How it is done:
Caspase 3,7 activity was quantified using the Caspase-Glo 3/7 Assay (Promega), according to manufacturer's instructions. Briefly, cells were plated in triplicate in 96-well plates and transfected with the appropriate oligonucleotide. Forty-eight hours after transfection, cells were cultured in the presence or absence of serum for twenty-four hours. Cells were then incubated for 1 h with the caspase substrates, and luminescence was quantified.

A further data set deals with PASMCs. Description: Contraction assay of PASMCs in matrigel. The conditions noted are these: conditioned media from transfected PAECs; rosiglitazone in PAECs; ambrisentan on PASMCs. As for the experimental part: (FIG. 40A) A schematic diagram of co-culture experiments: conditioned media from transfected PAECs (miRNA, anti-miRNA, tiny-LNA or siRNA under normoxic or hypoxic conditions) were filtered and applied onto naïve PASMCs cultured in matrigel. At specific times, PASMCs or PASMC-matrigel cultures were arrested and analyzed for STAT3 activation (phosphorylation) or contraction, respectively.
50000 PASMC were embedded in 100 ul of matrix gel as previous described (Gagiolli et al) and plated into well of a 96 well plate. After 1 h at 37° C., these matrices were overlaid with 100 ul of conditioned PAECs serum-free medium (transfected with siRNA, miRNA or anti-miRNA and supplemented with Ambriesentan 10 uM). Every 12 h, medium was changed and at day 4 the gels were photographed and the relative diameter of the well and the gel were measured using ImageJ. The percentage contraction was calculated using the formula 100*(well diameter−gel diamter)/well diameter. For the co-culture experiment, conditioned media from PAEC transfected as indicated were applied on PASMCs or Fibroblast previously starved (24 h). Cells were collected at different time and analyzed by western blotting.

Another data set relates to miR-130/301 family. Description: RT-qPCR of miR-130/301 family members after transfection of oligonucleotide inhibitors (specificity), PASMCs. The conditions noted are these: normoxia and hypoxia. An excerpt:
FIGS. 14A-14C show the comparison of the specificity of miR-130/301 oligonucleotide inhibitors. (FIG. 14A) Overview of the miRNA silencing approach using seed-targeting tiny locked nucleic acid (LNA) molecules. Tiny LNAs were designed as fully LNA-modified oligonucleotides complementary to the seed region of the miR-130/301 family. The high binding affinity of tiny LNA enables functional inhibition of co-expressed members of miRNA seed families, which leads to de-repression of target mRNAs. Sequences shown in FIG. 14A are miR-130a (SEQ ID NO: 4), miR-130b (SEQ ID NO: 5), miR-301a (SEQ ID NO: 6), miR-301b (SEQ ID NO: 7) and tiny-LNA-130 ([…] SEQ ID NO: 3). […] In the setting of exposure to hypoxia (0.2% O2; 24 h) or normoxia (21% O2; 24 h), expression levels of miR-130/301 family members in PAECs (FIG. 14B) and PASMCs (FIG. 14C) were quantified after transfection with anti-miR-130a versus control (anti-miR-NC) (left panels) or tiny-LNA-130 versus control (tiny-LNA-NC) (right panels). […]
Cells were homogenized in 2 ml of QiaZol reagent (Qiagen). […] Total RNA concentration was determined using a ND-1000 micro-spectrophotometer (NanoDrop Technologies).
Mature miRNA expression was evaluated using TaqMan MicroRNA Assays (Life Technologies/Applied Biosystems) and the Applied Biosystems 7900HT Fast Real Time PCR device (Life Technologies/Applied Biosystems). […]
(Real-time PCR tracks product formation cycle by cycle.)

Take “tiny-LNA-130: fully LNA-modified tiny LNA oligonucleotide 5′-ATTGCACT-3′ (SEQ ID NO: 3) complementary to the seed region of the miR-130/301 family (all LNA, backbone and methylation of C not given here)”: the “caspase 3/7 activity” value with PAECs (24 h serum deprivation) is on record as “partially protected cells from caspase 3/7 induction”; in the data set on PAECs (serum-replete conditions) it was “No significant modulation”. The “actinomyosin contraction of PASMCs” value in the data set on PASMCs was “abrogated”. Further, the “expression of all miR-130/301 family members” value in the data set with miR-130/301 family was “down-regulated; also recorded: effective inhibitors of the entire miR-130/301 family”.
